Measured values reported in US20160081935A1, “DOSAGE FORMS FOR ORAL ADMINISTRATION OF ACTIVE SUBSTANCES” (GIULIANI S.P.A., priority 2013, published 2016).
In brackets after ≈: the same amount, converted by molar mass. Read-outs that look alike come from different tables or passages of the source.

How the values were obtained:
[1] = cited from earlier work
[2] = Hydrophilicity-lipophilicity index for the active ingredient in single dose (Ip.a.), calculation method; settings: for Ip.a.: scale 0-20
From the text: Where Ip.a. means the hydrophilicity-lipophilicity index for the active ingredient in single dose.
Coefficient X is equal to the solubility of the active ingredient S (mg/liter) divided by the amount of active ingredient expressed in mg per single dose (mg/dose).
A substance that is miscible in any ratio with water has an infinite water solubility, in such case considering a substance as the solute and the other as the solvent may be meaningless. Therefore, in this condition use of the above equation, which presents a horizontal asymptote, is not necessarily required. Instead, the value 20 on the scale of hydrophilicity lipophilicity is arbitrarily assigned, while the value 0, or better tending to 0, is attributed to substances considered insoluble in water.
In the case of molecules considered insoluble, the value on the solubility index scale will tend to zero, and therefore, the scale can be considered for convenience between the values 0-20.

[3] = Solubility of active ingredients in water; type: physicochemical; settings: for Solubility: 20 °C
From the text: The solubility (S) of a solute is the maximum amount of solute that dissolves in a fixed amount of a particular solvent at a specified temperature.

[4] = mg per 1000 ml of water at 20° C.-25° C., 0.00001 used for practically insoluble substances

Cc1cc2nc3c(=O)[nH]c(=O)nc-3n(C[C@H](O)[C@H](O)[C@H](O)CO)c2cc1C [Riboflavin (form A), Riboflavin]
Solubility ([1]; volume of water that dissolves 1 g, varies with crystal form): 1 g/3-15 L **

Oc1ccc(C=Cc2cc(O)cc(O)c2)cc1 [resveratrol]
Solubility ([1]; in water): 0.003 g in 100 ml

CSCC[C@H](N)C(=O)O [L-Methionine]
Solubility ([1]; at 293 K): 48 g/l at 293 K | S [1, 4]: 48000 mg/L | X = (mg/l)/(mg/dose) ([2]; dose 300 mg): 160 (mg/l)/(mg/dose) | Ip.a. ([2]; dose 300 mg): 20

Vitamin A
Solubility ([1]; in water, in words): practically insoluble in water | S [1, 4]: 0.00001 mg/L | X = (mg/l)/(mg/dose) ([2]; dose 0.1 mg): 0.0001 (mg/l)/(mg/dose) | Ip.a. ([2]; dose 0.1 mg): 0.00000

N[C@@H](Cc1ccc(O)cc1)C(=O)O [tyrosine]
S ([1]; 25° C.): 453 mg/L | X = (mg/l)/(mg/dose) ([2]; dose 45.3 mg): 10 (mg/l)/(mg/dose) | Ip.a. ([2]; dose 45.3 mg): 20 | X = (mg/l)/(mg/dose) ([2]; dose 453.0 mg): 1 (mg/l)/(mg/dose) | Ip.a. ([2]; dose 453.0 mg): 19.62 | X = (mg/l)/(mg/dose) ([2]; dose 498.3 mg): 0.9091 (mg/l)/(mg/dose) | Ip.a. ([2]; dose 498.3 mg): 16.85 | X = (mg/l)/(mg/dose) ([2]; dose 543.6 mg): 0.8333 (mg/l)/(mg/dose) | Ip.a. ([2]; dose 543.6 mg): 5.858 | X = (mg/l)/(mg/dose) ([2]; dose 588.9 mg): 0.7692 (mg/l)/(mg/dose) | Ip.a. ([2]; dose 588.9 mg): 0.7258 | X = (mg/l)/(mg/dose) ([2]; dose 634.2 mg): 0.7143 (mg/l)/(mg/dose) | Ip.a. ([2]; dose 634.2 mg): 0.08114

Cc1cc2nc3c(=O)[nH]c(=O)nc-3n(C[C@H](O)[C@H](O)[C@H](O)CO)c2cc1C [Riboflavin]
Solubility ([1]; 1 g in this volume, depending on the crystalline form, Merck Index): 3 to 15 L | Solubility ([3]; deduced experimentally): ~80 µg/mL (≈ 213 µM)

CS(C)(=O)=O [Dimethyl sulfone]
Solubility ([1]; at 25° C.): 150 g/L at | S [1, 4]: 150000 mg/L | X = (mg/l)/(mg/dose) ([2]; dose 500 mg): 300 (mg/l)/(mg/dose) | Ip.a. ([2]; dose 500 mg): 20

COC1=C(OC)C(=O)C(C/C=C(\C)CC/C=C(\C)CC/C=C(\C)CC/C=C(\C)CC/C=C(\C)CC/C=C(\C)CC/C=C(\C)CC/C=C(\C)CC/C=C(\C)CCC=C(C)C)=C(C)C1=O [Ubidecarenone]
Solubility ([1]; in water, in words): practically insoluble in water | S [1, 4]: 0.00001 mg/L | X = (mg/l)/(mg/dose) ([2]; dose 10 mg): 0.000001 (mg/l)/(mg/dose) | Ip.a. ([2]; dose 10 mg): 0.00000

Vitamin E
Solubility ([1]; in water, in words): practically insoluble in water | S [1, 4]: 0.00001 mg/L | X = (mg/l)/(mg/dose) ([2]; dose 10 mg): 0.000001 (mg/l)/(mg/dose) | Ip.a. ([2]; dose 10 mg): 0.00000

Cc1cc2nc3c(=O)[nH]c(=O)nc-3n(C[C@H](O)[C@H](O)[C@H](O)CO)c2cc1C [Riboflavin (form B), Riboflavin]
Solubility ([3]; riboflavin form B, in water): 80 µg/mL (≈ 213 µM) | S ([3]; riboflavin form B): 80 mg/L
